From the NIST ThermoML archive (doi:10.1016/j.tca.2014.05.014)

Experiment: mn = molality of the nth substance listed, in mol/kg
Conditions: 101 kPa, Liquid; for speed of sound: Frequency=3 MHz, Sing-around technique in a fixed-path interferometer; for mass density: Vibrating tube method

CC(=O)NCC(=O)O [N-acetylglycine] + O
Conditions | mass density, 288.15 K [kg/m3] | mass density, 293.15 K [kg/m3] | mass density, 298.15 K [kg/m3] | mass density, 303.15 K [kg/m3] | mass density, 308.15 K [kg/m3] | speed of sound, 288.15 K [m/s] | speed of sound, 293.15 K [m/s] | speed of sound, 298.15 K [m/s] | speed of sound, 303.15 K [m/s] | speed of sound, 308.15 K [m/s]
m1 = 0.0203 | 1000.3 | 999.25 | 997.843 | 996.325 | 994.871 | 1467.5 | 1483.6 | 1497.7 | 1510 | 1520.3
m1 = 0.06014 | 1001.63 | 1000.6 | 999.038 | 997.499 | 996.032 | 1469.4 | 1485.4 | 1499 | 1511.4 | 1521.5
m1 = 0.1002 | 1002.81 | 1001.87 | 1000.36 | 998.819 | 997.262 | 1471.4 | 1486.8 | 1500.5 | 1512.4 | 1522.6
m1 = 0.1403 | 1004 | 1003.13 | 1001.63 | 1000.17 | 998.641 | 1473.3 | 1488.9 | 1502.1 | 1514.2 | 1524
m1 = 0.1695 | 1004.75 | 1003.97 | 1002.73 | 1001.25 | 999.567 | 1474.8 | 1489.9 | 1503.3 | 1514.9 | 1524.9
m1 = 0.2002 | 1005.54 | 1004.9 | 1003.76 | 1002.59 | 1001.25 | 1475.9 | 1491.4 | 1504.2 | 1515.6 | 1525.8
